What was measured:
THP-1 cells = assay: Measurement of fluorescence v time by flow cytometry, monocytic cell line; type: cell-based; settings: THP-1 cells (significant quantities of hCE-1); FIG. 6; 3000 nM; median fluorescence intensity v time
Method: (§1) The degree of fluorescence of monocytic and non-monocytic cell lines following treatment with Example 1 was assessed using flow cytometry. This assessment was performed using a BD Biosciences BD FACSCanto™ Flow Cytometry System.
(§2) The cell lines are treated with a 3000 nM solution of Example 1. The resultant mixture is sampled at times 0, 1 hr, 2 hr, 4 hr and 6 hr. At each time point a sample of the cells is harvested by centrifugation, washed and allowed to rest for 30 minutes then washed again and re-suspended in a small volume for analysis by flow cytometry (FACSCanto™ A BD Biosciences) at an excitation of 488 nm blue laser line emission measured in an FITC detector using a 502 nm long pass dichroic and a 530±15 band pass filter. Data is expressed as median fluorescence intensity (MFI) for the cell population in the FITC channel, and plotted against time in a line graph. The unstained cells are set to an MFI of 100.

KG-1 cells = assay: Measurement of fluorescence v time by flow cytometry, non-monocytic cell line; type: cell-based; settings: KG-1 cells (insignificant quantities of hCE-1); FIG. 5; 3000 nM; median fluorescence intensity v time
Method: as §1, §2

O=C(OC1CCCC1)[C@@H](NCc1ccc(OCCCNc2ccc([N+](=O)[O-])c3nonc23)cc1)c1ccccc1 [Example 1, Cyclopentyl (2S)-[(4-{3-[(7-nitro-2,1,3-benzoxadiazol-4-yl)amino]propoxy}benzyl)amino](phenyl)ethanoate]
increase in fluorescence following treatment (THP-1 cells): high increase in fluorescence
increase in fluorescence following treatment (KG-1 cells): low increase in fluorescence

From patent US20140010762A1, “IMAGING AGENTS” (Chroma Therapeutics Ltd, priority 2010, published 2014)
